# Results published in BindingDB's records for doi:10.1021/acs.jmedchem.7b01449 (University of Antwerp, 2018).
# Biological target: T1, Receptor-interacting serine/threonine-protein kinase 1 (Mus musculus, UniProt Q60855)
# T1 sequence (Q60855 whole entry): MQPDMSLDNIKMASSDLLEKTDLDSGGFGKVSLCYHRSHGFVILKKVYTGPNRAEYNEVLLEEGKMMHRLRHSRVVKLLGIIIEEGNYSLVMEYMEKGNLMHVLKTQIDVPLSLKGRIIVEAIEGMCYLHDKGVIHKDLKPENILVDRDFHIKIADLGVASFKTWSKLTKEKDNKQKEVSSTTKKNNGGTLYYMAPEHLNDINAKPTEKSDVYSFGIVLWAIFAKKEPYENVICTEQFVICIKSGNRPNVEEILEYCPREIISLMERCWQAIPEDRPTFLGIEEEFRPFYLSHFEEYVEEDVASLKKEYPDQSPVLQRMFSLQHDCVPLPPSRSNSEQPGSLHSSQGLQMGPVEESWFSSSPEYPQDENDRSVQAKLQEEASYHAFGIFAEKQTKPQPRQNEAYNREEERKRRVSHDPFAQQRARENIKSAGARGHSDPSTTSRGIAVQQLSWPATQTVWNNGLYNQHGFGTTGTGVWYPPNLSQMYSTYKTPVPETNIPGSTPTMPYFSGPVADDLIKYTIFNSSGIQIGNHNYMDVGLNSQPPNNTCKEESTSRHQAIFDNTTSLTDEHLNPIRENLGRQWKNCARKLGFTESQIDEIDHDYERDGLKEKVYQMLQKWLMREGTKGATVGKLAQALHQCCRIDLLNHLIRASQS
# Assay: ChEBML_1697666
# Excerpt: (§1) Inhibition of RIPK1 in mouse L929sA cells transfected with human Fas assessed as inhibition in TNF-induced necroptosis pretreated for 24 hrs followed by TNF and zVAD.fmk addition measured after 3 hrs by Hoechst 33342/propidium iodide staining-based assay
row,Structure (SMILES),IC50 [nM]
1,Cc1cc(Nc2cc(N3CCCCC3)nc(Nc3ccc(NC(=O)C4CCCCC4)cc3)n2)n[nH]1,> 3000
2,Cc1cc(Nc2nc(Nc3ccc(NC(=O)C4CC4)cc3)nc(N3CCCCC3)n2)n[nH]1,> 3000

# Biological target: T1, Receptor-interacting serine/threonine-protein kinase 1
# Assay: as §1
row,Structure (SMILES),IC50 [nM]
1,Cc1[nH]nc(Nc2nc(Nc3ccc(NC(=O)C4CCCCC4)cc3)nc(N3CCN(C)CC3)n2)c1C,> 3000
2,Cc1[nH]nc(Nc2nc(Sc3ccc(NC(=O)C4CCCCC4)cc3)nc(N3CCN(C)CC3)n2)c1C,> 3000
3,Cc1[nH]nc(Nc2nc(Sc3ccc(NC(=O)C4CCCCC4)cc3)nc(N3CCCCC3)n2)c1C,> 3000
4,Cc1cc(Nc2cc(N3CCN(C)CC3)nc(Sc3ccc(NC(=O)C4CCCCC4)cc3)n2)n[nH]1,> 3000
5,Cc1[nH]nc(Nc2nc(Nc3ccc(NC(=O)C4CCCCC4)cc3)nc(N3CCCCC3)n2)c1C,> 3000
6,Cc1[nH]nc(Nc2nc(Nc3ccc(NC(=O)C4CCCCC4)cc3)nc(N3CCOCC3)n2)c1C,> 3000
7,Cc1[nH]nc(Nc2cc(N3CCCCC3)nc(Nc3ccc(NC(=O)C4CC4)cc3)n2)c1C,> 3000

# Biological target: not listed separately
# Assay: Inhibition of RIPK1 in mouse L929sA cells transfected with human Fas assessed as inhibition in TNF-induced necroptosis pretreated for 24 hrs followed by TNF and zVAD.fmk addition measured after 3 hrs by Hoechst 33342/propidium iodide staining-based assay
row,Structure (SMILES),IC50 [nM]
1,Cc1[nH]nc(Nc2cc(N3CCCCC3)nc(Nc3ccc(NC(=O)C4CCCCC4)cc3)n2)c1C,> 3000
2,Cc1cc(Nc2cc(N3CCOCC3)nc(Sc3ccc(NC(=O)C4CCCCC4)cc3)n2)n[nH]1,360
3,Cc1cc(Nc2nc(Nc3ccc(NC(=O)C4CCCCC4)cc3)nc(N3CCOCC3)n2)n[nH]1,> 3000
4,Cc1[nH]nc(Nc2nc(Sc3ccc(NC(=O)C4CCCCC4)cc3)nc(N3CCOCC3)n2)c1C,> 3000
5,Cc1cc(Nc2nc(Sc3ccc(NC(=O)C4CCCCC4)cc3)nc(N3CCOCC3)n2)n[nH]1,1630
6,Cc1[nH]nc(Nc2nc(Nc3ccc(NC(=O)C4CC4)cc3)nc(N3CCOCC3)n2)c1C,> 3000
7,Cc1[nH]nc(Nc2cc(N3CCOCC3)nc(Sc3ccc(NC(=O)C4CCCCC4)cc3)n2)c1C,> 3000
8,Cc1[nH]nc(Nc2nc(Nc3ccc(NC(=O)C4CC4)cc3)nc(N3CCCCC3)n2)c1C,> 3000
9,Cc1[nH]nc(Nc2nc(Nc3ccc(NC(=O)C4CC4)cc3)nc(N3CCN(C)CC3)n2)c1C,> 3000
10,Cc1[nH]nc(Nc2cc(N3CCN(C)CC3)nc(Nc3ccc(NC(=O)C4CCCCC4)cc3)n2)c1C,> 3000
11,Cc1cc(Nc2nc(Sc3ccc(NC(=O)C4CCCCC4)cc3)nc(N3CCN(C)CC3)n2)n[nH]1,> 3000

# Biological target: not listed separately
# Assay: as above
# Remark: another data set of the same source
row,Structure (SMILES),IC50 [nM]
1,CCN1CCN(c2cc(Nc3n[nH]c(C)c3C)nc(Sc3ccc(NC(=O)C4CC4)cc3)n2)CC1,> 3000
2,Cc1cc(Nc2cc(N3CCN(C)CC3)nc(Nc3ccc(NC(=O)C4CCCCC4)cc3)n2)n[nH]1,1750
3,Cc1[nH]nc(Nc2nc(Sc3ccc(NC(=O)C4CC4)cc3)nc(N3CCOCC3)n2)c1C,> 3000
4,Cc1cc(Nc2cc(N3CCCCC3)nc(Nc3ccc(NC(=O)C4CCCCC4)cc3)n2)n[nH]1,1940
5,Cc1cc(Nc2nc(Sc3ccc(NC(=O)C4CC4)cc3)nc(N3CCCCC3)n2)n[nH]1,> 3000
6,Cc1[nH]nc(Nc2cc(N3CCOCC3)nc(Nc3ccc(NC(=O)C4CCCCC4)cc3)n2)c1C,> 3000
7,Cc1cc(Nc2nc(Nc3ccc(NC(=O)C4CCCCC4)cc3)nc(N3CCCCC3)n2)n[nH]1,> 3000
8,Cc1[nH]nc(Nc2cc(N3CCOCC3)nc(Nc3ccc(NC(=O)C4CC4)cc3)n2)c1C,> 3000
9,Cc1cc(Nc2nc(Nc3ccc(NC(=O)C4CCCCC4)cc3)nc(N3CCN(C)CC3)n2)n[nH]1,> 3000
10,Cc1cc(Nc2nc(Sc3ccc(NC(=O)C4CC4)cc3)nc(N3CCOCC3)n2)n[nH]1,1450
11,Cc1cc(Nc2nc(Sc3ccc(NC(=O)C4CCCCC4)cc3)nc(N3CCCCC3)n2)n[nH]1,> 3000
12,Cc1[nH]nc(Nc2nc(Sc3ccc(NC(=O)C4CC4)cc3)nc(N3CCN(C)CC3)n2)c1C,> 3000
13,Cc1cc(Nc2cc(N3CCN(C)CC3)nc(Nc3ccc(NC(=O)C4CC4)cc3)n2)n[nH]1,640
14,Cc1[nH]nc(Nc2cc(N3CCN(C)CC3)nc(Sc3ccc(NC(=O)C4CCCCC4)cc3)n2)c1C,> 3000
15,Cc1[nH]nc(Nc2nc(Sc3ccc(NC(=O)C4CC4)cc3)nc(N3CCCCC3)n2)c1C,> 3000
16,Cc1[nH]nc(Nc2cc(N3CCN(C)CC3)nc(Nc3ccc(NC(=O)C4CC4)cc3)n2)c1C,> 3000
17,Cc1cc(Nc2cc(N3CCCCC3)nc(Sc3ccc(NC(=O)C4CCCCC4)cc3)n2)n[nH]1,5040
18,Cc1cc(Nc2cc(N3CCOCC3)nc(Sc3ccc(NC(=O)C4CC4)cc3)n2)n[nH]1,810
19,Cc1cc(Nc2cc(N3CCCCC3)nc(Sc3ccc(NC(=O)C4CC4)cc3)n2)n[nH]1,1740
20,Cc1cc(Nc2cc(N3CCCCC3)nc(Nc3ccc(NC(=O)C4CC4)cc3)n2)n[nH]1,680
21,Cc1[nH]nc(Nc2cc(N3CCCCC3)nc(Sc3ccc(NC(=O)C4CCCCC4)cc3)n2)c1C,> 3000
22,Cc1cc(Nc2cc(N3CCOCC3)nc(Nc3ccc(NC(=O)C4CCCCC4)cc3)n2)n[nH]1,1500
23,Cc1cc(Nc2nc(Nc3ccc(NC(=O)C4CC4)cc3)nc(N3CCN(C)CC3)n2)n[nH]1,> 3000
24,Cc1cc(Nc2nc(Nc3ccc(NC(=O)C4CC4)cc3)nc(N3CCOCC3)n2)n[nH]1,2640
25,Cc1cc(Nc2nc(Sc3ccc(NC(=O)C4CC4)cc3)nc(N3CCN(C)CC3)n2)n[nH]1,1140

# Biological target: not listed separately
# Assay: Inhibition of RIPK1 in mouse L929sA cells transfected with human Fas assessed as inhibition in TNF-induced necroptosis pretreated for 0.5 hrs followed by TNF and zVAD.fmk addition measured after 3 hrs by Hoechst 33342/propidium iodide staining-based assay
row,Structure (SMILES),IC50 [nM]
1,Cc1cc(Nc2nc(Sc3ccc(NC(=O)C4CC4)cc3)nc(N3CCOCC3)n2)n[nH]1,700
2,Cc1cc(Nc2cc(N3CCN(C)CC3)nc(Nc3ccc(NC(=O)C4CC4)cc3)n2)n[nH]1,1040
3,Cc1cc(Nc2nc(Nc3ccc(NC(=O)C4CC4)cc3)nc(N3CCOCC3)n2)n[nH]1,1060

# Biological target: not listed separately
# Assay: as above
# Remark: another data set of the same source
row,Structure (SMILES),IC50 [nM]
1,CCN1CCN(c2cc(Nc3n[nH]c(C)c3C)nc(Sc3ccc(NC(=O)C4CC4)cc3)n2)CC1,> 3000
2,Cc1cc(Nc2cc(N3CCN(C)CC3)nc(Nc3ccc(NC(=O)C4CCCCC4)cc3)n2)n[nH]1,910
3,Cc1[nH]nc(Nc2cc(N3CCCCC3)nc(Nc3ccc(NC(=O)C4CCCCC4)cc3)n2)c1C,> 3000
4,Cc1cc(Nc2nc(Sc3ccc(NC(=O)C4CC4)cc3)nc(N3CCCCC3)n2)n[nH]1,> 3000
5,Cc1[nH]nc(Nc2cc(N3CCOCC3)nc(Nc3ccc(NC(=O)C4CCCCC4)cc3)n2)c1C,> 3000
6,Cc1cc(Nc2nc(Nc3ccc(NC(=O)C4CCCCC4)cc3)nc(N3CCCCC3)n2)n[nH]1,> 3000
7,Cc1[nH]nc(Nc2cc(N3CCOCC3)nc(Nc3ccc(NC(=O)C4CC4)cc3)n2)c1C,> 3000
8,Cc1cc(Nc2nc(Sc3ccc(NC(=O)C4CCCCC4)cc3)nc(N3CCCCC3)n2)n[nH]1,> 3000
9,Cc1[nH]nc(Nc2cc(N3CCN(C)CC3)nc(Sc3ccc(NC(=O)C4CCCCC4)cc3)n2)c1C,> 3000
10,Cc1cc(Nc2cc(N3CCOCC3)nc(Sc3ccc(NC(=O)C4CCCCC4)cc3)n2)n[nH]1,380
11,Cc1cc(Nc2nc(Nc3ccc(NC(=O)C4CCCCC4)cc3)nc(N3CCOCC3)n2)n[nH]1,> 3000
12,Cc1cc(Nc2nc(Sc3ccc(NC(=O)C4CCCCC4)cc3)nc(N3CCOCC3)n2)n[nH]1,> 3000
13,Cc1[nH]nc(Nc2nc(Nc3ccc(NC(=O)C4CC4)cc3)nc(N3CCOCC3)n2)c1C,> 3000
14,Cc1[nH]nc(Nc2cc(N3CCN(C)CC3)nc(Nc3ccc(NC(=O)C4CC4)cc3)n2)c1C,> 3000
15,Cc1cc(Nc2cc(N3CCCCC3)nc(Sc3ccc(NC(=O)C4CCCCC4)cc3)n2)n[nH]1,1750
16,Cc1[nH]nc(Nc2cc(N3CCOCC3)nc(Sc3ccc(NC(=O)C4CCCCC4)cc3)n2)c1C,> 3000
17,Cc1cc(Nc2cc(N3CCOCC3)nc(Sc3ccc(NC(=O)C4CC4)cc3)n2)n[nH]1,390
18,Cc1[nH]nc(Nc2nc(Nc3ccc(NC(=O)C4CC4)cc3)nc(N3CCCCC3)n2)c1C,> 3000
19,Cc1cc(Nc2cc(N3CCCCC3)nc(Nc3ccc(NC(=O)C4CC4)cc3)n2)n[nH]1,530
20,Cc1[nH]nc(Nc2nc(Nc3ccc(NC(=O)C4CC4)cc3)nc(N3CCN(C)CC3)n2)c1C,> 3000
21,Cc1cc(Nc2cc(N3CCOCC3)nc(Nc3ccc(NC(=O)C4CCCCC4)cc3)n2)n[nH]1,640
22,Cc1cc(Nc2nc(Nc3ccc(NC(=O)C4CC4)cc3)nc(N3CCN(C)CC3)n2)n[nH]1,> 3000
23,Cc1cc(Nc2nc(Sc3ccc(NC(=O)C4CCCCC4)cc3)nc(N3CCN(C)CC3)n2)n[nH]1,> 3000
24,Cc1cc(Nc2nc(Sc3ccc(NC(=O)C4CC4)cc3)nc(N3CCN(C)CC3)n2)n[nH]1,> 3000
